Results reported in PubChem BioAssay AID2060326 (Molecular Pharmacology Branch, DTP, NCI, 2025).
“And” between values parts separate entries of the source, which are not always exact repeats. Equal values may be shown once.

Test system: MDA-MB-468 multi-cell spheroids, viability
Test: Anticancer human tumor MDA-MB-468 cell line growth inhibition [IpAb];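 also: spheroids exposed to agents for seven days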;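 as to viability, T/C: 100% = DMSO vehicle control viability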
Details: for viability, T/C: stronger effect = lower value
Text: Combinatorial screen of targeted agents with ipatasertib and abemaciclib in multi-cell type tumor spheroids
A high-throughput screen of multi-cell type tumor spheroids was designed to identify active combinations of targeted small molecules and ipatasertib or abemaciclib. Complex spheroids include a stromal component modeled by human endothelial cells (HUVEC) and fibroblasts modeled by human mesenchymal stem cells (MSCs). The concentration ranges selected for each drug and investigational agent were based upon clinically achievable concentrations if the clinical Cmax of the agent was known.
Compounds. The drugs and investigational agents: ipatasertib (NSC767898), abemaciclib(NSC768073), selumetinib (NSC741078), trametinib (758246), adavosertib (NSC754352), everolimus (NSC733504), sapanisertib (NSC764658), vemurafenib (NSC761431), venetoclax (NSC766270), copanlisib (NSC809693), apelisib (NSC765974), palbociblib (NSC758247), vemurafenib (NSC761431), dabrafenib (NSC764134), ravoxertinib (NSC781343), BMS-387032 (NSC767048), sotorasib (NSC818433), talazoparib (NSC767125) and afursertib (NSC778305), were obtained from the National Cancer Institute (NCI) Developmental Therapeutics Program Chemical Repository. The FDA-approved anticancer drug set is available from the NCI Developmental Therapeutics Program. […] The stock solutions were prepared in dimethyl sulfoxide (DMSO, Sigma-Aldrich, St. Louis, MO, cat. D2650) at 800-fold the tested concentration and stored at -70 degrees C prior to their use. All drugs and investigational agents were tested over a range starting from a high concentration at or near the clinical Cmax and decreasing in half-log increments. If the clinical Cmax for an agent had not been determined, the highest concentration tested was 10 microM.
NCI60 Cell Culture. NCI60 cell lines were obtained from the NCI Developmental Therapeutics Program Tumor Repository. For each lot of cells, the Repository performed Applied Biosystems AmpFLSTR Identifiler testing with PCR amplification to confirm consistency with the published Identifier STR profile for each cell line. Cells were kept in continuous culture for no more than 20 passages. The optimal seeding densities for each of the cell lines at each time point assessed were determined prior to performing the concentration response studies. Briefly, the NCI60 human tumor lines were grown as monolayers in RPMI 1640 medium supplemented with 10% FBS and 2 mmol/L L-glutamine.
An additional 9 lines were from the NCI60 cell line panel including MDA-MB-231 breast carcinoma, MDA-MB-468 breast carcinoma, MCF7 breast carcinoma, Hs578T breast carcinoma, MALME-3M melanoma, SK-MEL-2 melanoma, SK-OV-3 ovarian carcinoma, DU-145 prostate carcinoma, PC-3 prostate carcinoma, all cell lines along with major genetic alterations are listed on Table 2. Pooled donor human umbilical vein endothelial cells (HUVEC, Lonza, cat. CC-2519) and human mesenchymal stem cells (hMSC, Lonza, cat. PT-2501) were purchased from Lonza (Walkersville, MD).
PDMR cell lines were grown in complete medium (DC medium): Dulbecco's modified Eagle's medium (DMEM)/F12 supplemented with 5% fetal bovine serum (FBS), 2 mM L-glutamine, 100 U/mL penicillin and 100 µg/ml streptomycin, 0.4 µg/ml hydrocortisone, 10 ng/ml epidermal growth factor (EGF) recombinant human protein, 24 µg/mL adenine, and 0.1 mg/mL primocin. During culture from frozen stock vials, PDMR cells were cultured in the same medium containing 10 µM Y-27632 (see Table 3). The PDCs were cultured in complete DMEM/F12 media without 10 microM Y-27632 dihydrochloride for at least two passages prior to the screen. The pooled donor HUVEC and hMSC were cultured in endothelial cell growth medium 2 (PromoCell, Heidelberg, Germany, cat. C-22011) and mesenchymal stem cell growth medium 2 (PromoCell, cat. C-28009), respectively. For all experiments, HUVEC and hMSC were used at passages </=5.
[…]

Question: How did the IC50 (curve of first compound, second compound 0.01 µM) turn out when `COc1c(OCCCN2CCOCC2)ccc2c3n(c(=NC(=O)c4cnc(N)nc4)nc12)CCN3` + CCN1CCN(Cc2ccc(Nc3ncc(F)c(-c4cc(F)c5nc(C)n(C(C)C)c5c4)n3)nc2)CC1 was run?
Answer: Its IC50 is 145 nM.

Question: And the IC50 (curve of first compound, second compound 0.0316 µM)?
Answer: The IC50 was 109 nM.

Question: What about the IC50 (curve of first compound, second compound 0.1 µM) of the same molecule?
Answer: Its IC50 is 91.7 nM.

Question: And the IC50 (curve of first compound, second compound 0.316 µM)?
Answer: The IC50 was 111 nM.

Question: And the IC50 (curve of first compound, second compound 1 µM)?
Answer: The IC50 was 75.4 nM.

Question: And the viability, T/C (second compound 0.01 µM, first compound 0.00316 µM)?
Answer: Its viability, T/C is 101%.

Question: What about the viability, T/C (second compound 0.01 µM, first compound 0.01 µM) of the same molecule?
Answer: Its viability, T/C is 79.4%.

Question: What about the viability, T/C (second compound 0.01 µM, first compound 0.0316 µM) of the same molecule?
Answer: Its viability, T/C is 78.6%.

Question: What about the viability, T/C (second compound 0.01 µM, first compound 0.1 µM) of the same molecule?
Answer: The viability, T/C was 66.9%.

Question: And the viability, T/C (second compound 0.01 µM, first compound 0.316 µM)?
Answer: Its viability, T/C is 20.9%.

Question: And the viability, T/C (second compound 0.01 µM, first compound 1 µM)?
Answer: The viability, T/C was 3.88%.

Question: And the viability, T/C (second compound 0.0316 µM, first compound 0.00316 µM)?
Answer: Its viability, T/C is 93%.

Question: What about the viability, T/C (second compound 0.0316 µM, first compound 0.01 µM) of the same molecule?
Answer: The viability, T/C was 85.6%.

Question: And the viability, T/C (second compound 0.0316 µM, first compound 0.0316 µM)?
Answer: Its viability, T/C is 73.5%.

Question: And the viability, T/C (second compound 0.0316 µM, first compound 0.1 µM)?
Answer: Its viability, T/C is 54.7%.

Question: What about the viability, T/C (second compound 0.0316 µM, first compound 0.316 µM) of the same molecule?
Answer: The viability, T/C was 21.9%.

Question: What about the viability, T/C (second compound 0.0316 µM, first compound 1 µM) of the same molecule?
Answer: The viability, T/C was 3.58%.

Question: What about the viability, T/C (second compound 0.1 µM, first compound 0.00316 µM) of the same molecule?
Answer: The viability, T/C was 109%.

Question: What about the viability, T/C (second compound 0.1 µM, first compound 0.01 µM) of the same molecule?
Answer: Its viability, T/C is 93.8%.

Question: And the viability, T/C (second compound 0.1 µM, first compound 0.0316 µM)?
Answer: The viability, T/C was 78.4%.

Question: And the viability, T/C (second compound 0.1 µM, first compound 0.1 µM)?
Answer: The viability, T/C was 50.1%.

Question: And the viability, T/C (second compound 0.1 µM, first compound 0.316 µM)?
Answer: The viability, T/C was 16.1%.

Question: What about the viability, T/C (second compound 0.1 µM, first compound 1 µM) of the same molecule?
Answer: The viability, T/C was 3.39%.

Question: What about the viability, T/C (second compound 0.316 µM, first compound 0.00316 µM) of the same molecule?
Answer: The viability, T/C was 80.6%.

Question: What about the viability, T/C (second compound 0.316 µM, first compound 0.01 µM) of the same molecule?
Answer: The viability, T/C was 98.7%.

Question: And the viability, T/C (second compound 0.316 µM, first compound 0.0316 µM)?
Answer: The viability, T/C was 86.8%.

Question: And the viability, T/C (second compound 0.316 µM, first compound 0.1 µM)?
Answer: Its viability, T/C is 50.8%.

Question: What about the viability, T/C (second compound 0.316 µM, first compound 0.316 µM) of the same molecule?
Answer: Its viability, T/C is 21.2%.

Question: What about the viability, T/C (second compound 0.316 µM, first compound 1 µM) of the same molecule?
Answer: The viability, T/C was 6.79%.

Question: What about the viability, T/C (second compound 1 µM, first compound 0.00316 µM) of the same molecule?
Answer: The viability, T/C was 75%.

Question: What about the viability, T/C (second compound 1 µM, first compound 0.01 µM) of the same molecule?
Answer: Its viability, T/C is 73.6%.

Question: And the viability, T/C (second compound 1 µM, first compound 0.0316 µM)?
Answer: Its viability, T/C is 59.7%.

Question: What about the viability, T/C (second compound 1 µM, first compound 0.1 µM) of the same molecule?
Answer: The viability, T/C was 49%.

Question: And the viability, T/C (second compound 1 µM, first compound 0.316 µM)?
Answer: The viability, T/C was 21%.

Question: What about the viability, T/C (second compound 1 µM, first compound 1 µM) of the same molecule?
Answer: The viability, T/C was 7.2%.

Question: How did the viability, T/C (compound 0.00949 µM) turn out when `Cn1cnc2c(F)c(Nc3ccc(Br)cc3Cl)c(C(=O)NOCCO)cc21` was run?
Answer: Its viability, T/C is 87.3% and 84.9%.

Question: What about the viability, T/C (compound 0.03 µM) of the same molecule?
Answer: Its viability, T/C is 92.3% and 85%.

Question: What about the viability, T/C (compound 0.0949 µM) of the same molecule?
Answer: The viability, T/C was 65.1% and 77.8%.

Question: What about the viability, T/C (compound 0.3 µM) of the same molecule?
Answer: The viability, T/C was 72% and 68.5%.

Question: And the viability, T/C (compound 0.949 µM)?
Answer: The viability, T/C was 59.6% and 59.1%.

Question: What about the viability, T/C (compound 3 µM) of the same molecule?
Answer: Its viability, T/C is 39.2% and 26.2%.

Question: And the IC50 (curve of compound)?
Answer: Its IC50 is 1560 nM and 1200 nM.

Question: Which results are given for `CC(=O)c1c(C)c2cnc(Nc3ccc(N4CCNCC4)cn3)nc2n(C2CCCC2)c1=O`?
Answer: viability, T/C (compound 0.000949 µM): 93.7% and 99%; viability, T/C (compound 0.003 µM): 91.4% and 97.5%; viability, T/C (compound 0.00949 µM): 92% and 93.8%; viability, T/C (compound 0.03 µM): 88.1% and 91.8%; viability, T/C (compound 0.0949 µM): 92.4% and 81.4%; viability, T/C (compound 0.3 µM): 90.2% and 73.4%; IC50 (curve of compound): > 300 nM
